We go through 82 molecules from PubChem BioAssay AID1259418 (Broad Institute, 2018).

Molecules are shown by their SMILES. Several values for one entry are separate records, joined by “and”; a condition that tells them apart may be missing. Identical values can stand only once. Inconclusive results are not listed. Activity calls are given as the source filed them.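 Rule for the calls: active = fitted half-maximal concentration of signal decrease at or below twice the sample's top tested concentration; inconclusive = flat curve between -70 and -30 percent, or poor fit; inactive = flat within 30 percent, signal rise, or potency above limit.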 Starred links: 1 amine or outer side, 2 acyl side, 3 side chain; linkers in the order of their positions; H or OH if unused. Non-standard residues stand in square brackets, D forms with d. Residues, ends and D or L forms follow the SMILES beside them. Groups on a side chain read outwards from the residue. *: point of attachment. Ethylenediamine = C(CN[*:2])N[*:1]; Hyp = O=C(O)[C@@H]1C[C@@H](O)CN1; Phg = N[C@H](C(=O)O)c1ccccc1; CO = O=C([*:1])[*:2]; Bn = c1ccc(C*)cc1

This assay has as its target T. gondii ME49Luc in IFN-y HeLa, luciferase, 72 h. In words: inhibitors of Toxoplasma growth in IFN-γ-primed HeLa – cell-based, ME49Luc, luciferase, 72 h, dose response (AID 1259418).
For orientation: AC50 means the concentration at which the activity in the assay is half-maximal. With `CC(C)CC#Cc1ccc([C@H]2[C@H]3CN(C(=O)Nc4cc(F)ccc4F)CC(=O)N3[C@H]2CO)cc1`, the AC50 was > 39 µM (inactive) and 8.8 µM.

Turning to `Cc1cccc(C(=O)Nc2c(C(=O)N3CCN(c4ccccn4)CC3)[nH]c3ccccc23)c1`, the AC50 is > 39000 nM (inactive). Consider `Cc1ccc(C(=O)Nc2c(C(=O)NCc3cccnc3)[nH]c3ccccc23)cc1`, for which the AC50 was > 39000 nM (inactive). Turning to `Cc1cc(C)c(S(=O)(=O)N2CCC3(CC2)NCCN=C3NC2CCCCC2)cc1C`, the AC50 is 6340 nM. As for `COc1ccccc1C(=O)Nc1ccc(-c2nc(-c3ccc(C)cc3)co2)cc1`, the AC50 was 19100 nM. For the molecule `O=C(C[C@H]1CC[C@H]2[C@@H](COC[C@H](O)CN2S(=O)(=O)c2ccccc2)O1)NCC1CCCCC1`, the AC50 is 20800 nM. Take `Cc1cc(C)cc(S(=O)(=O)N2CCC3(CC2)NCCN=C3NCc2ccc(F)cc2)c1`: the AC50 is 20500 nM.

As to `CCOc1ccccc1-c1nc(CN(c2cccc(OC)c2)S(=O)(=O)c2ccc(C)cc2)c(C)o1`, the AC50 is 9590 nM. With `COc1ccc(-c2nc(NC3CCN(Cc4ccccc4)CC3)c3ccccc3n2)cc1`, the AC50 was 26300 nM. As for `CCc1ccc(S(=O)(=O)Nc2ccc(-c3nc(-c4ccc(C)cc4C)co3)cc2)cc1`, the figure is 8520 nM. As for `CCC(=O)N1CC[C@@H]2[C@H]1c1cc(-c3ccc(C#N)cc3)ccc1N(C)[C@H]2CO`, the figure is > 42000 nM (inactive); as for `Cc1nc(OCC(=O)Nc2cc(F)ccc2F)c2ccccc2n1`, > 39000 nM (inactive); as for `COc1ccc(S(=O)(=O)N(Cc2nc(-c3ccccc3OC)oc2C)c2ccccc2OC)cc1`, 13700 nM. Turning to `COc1ccc(N(Cc2nc(-c3ccccc3OC)oc2C)S(=O)(=O)c2cccs2)cc1`, the AC50 was 3720 nM.

In the case of `CC(C)CC#Cc1ccc([C@@H]2[C@@H](CO)N3CCCCN(C(=O)Nc4ccccc4)C[C@@H]23)cc1`, the AC50 was 22500 nM and 15400 nM. As for `COc1ccc(-c2nc(NCC3CCN(Cc4ccc(C)cc4)C3)c3ccccc3n2)cc1` (configuration not stated), the AC50 was 13500 nM. On to `COc1ccc(N(Cc2nc(-c3ccccc3OC)oc2C)S(=O)(=O)c2ccc(OC)cc2)cc1`, for which the AC50 is 17900 nM. On to `CCOc1ccc(N(Cc2nc(-c3ccccc3)oc2C)S(=O)(=O)c2ccccc2)cc1`, for which the AC50 is 7950 nM. Regarding `CCCCC(=O)N1CCC2(CC1)Nc1ccc(Cl)cc1-n1cccc12`, the AC50 is > 39000 nM (inactive). For the molecule `COCCCNc1nc(-c2ccc(OC)cc2)nc2ccccc12`, the AC50 was 20000 nM. Consider `COc1ccccc1-c1noc(-c2nnn(Cc3nc(-c4ccc(C)cc4)oc3C)c2C)n1`, for which the AC50 was 15000 nM. Take `O=C(NCc1ccccc1)C1CC2(CO1)CN(C(=O)c1ccc(F)cc1)c1ccccc12` (configuration not stated): the AC50 is > 39000 nM (inactive). Take `COCC(=O)N1[C@@H](C#N)[C@H](c2ccc(C#CCC3CCCC3)cc2)[C@@H]1CO`: the AC50 was 38300 nM.

Consider `O=C(c1ccc(F)cc1)N1CC(=O)N2[C@H](C1)[C@@H](c1ccc(C#CCC3CCCC3)cc1)[C@@H]2CO`, for which the AC50 is 20400 nM and 10100 nM.

Turning to `Cc1ccc(-c2nc(Cn3nnc(-c4nc(-c5ccccc5)no4)c3C)c(C)o2)cc1`, the AC50 was > 20000 nM (inactive). On to `COc1cccc(NC(=O)N2CC(=O)N3[C@H](CO)[C@@H](c4ccc(C#CCC5CCCC5)cc4)[C@@H]3C2)c1`, for which the AC50 is 11900 nM and 9900 nM. With `COc1ccc(Cc2nnc(NC(=O)CC(C)C)s2)cc1`, the AC50 was 11300 nM. Turning to `O=C(CCCCCNc1nc(=S)[nH]c2ccccc12)N1CCC(O)(c2cccc(C(F)(F)F)c2)CC1`, the AC50 is > 39000 nM (inactive).

`CCc1ccccc1S(=O)(=O)N1CCC(C(=O)NCCc2csc(-c3ccccc3)n2)CC1`: the AC50 was 17500 nM. As to `COc1ccc(N(Cc2nc(-c3ccc(OC)c(OC)c3)oc2C)S(=O)(=O)c2ccccc2)cc1`, the AC50 was 9250 nM.

Turning to `Cc1ccc(-c2nc(CN3CCN(C(=O)Nc4ccccc4)CC3)c(C)o2)cc1`, the AC50 was 17500 nM.

As to `Cc1ccc(-c2coc(-c3ccc(NS(=O)(=O)c4ccc(Br)cc4C)cc3)n2)c(C)c1`, the AC50 is 26700 nM. As for `CC(C)CNC(=O)c1nc2c(s1)CCN(C(=O)NCc1ccccc1)CC2`, the figure is 16100 nM. `CCOc1ccc(-c2nc(CN(c3ccccc3)S(=O)(=O)c3cccs3)c(C)o2)cc1`: the AC50 was 15200 nM.

In the case of `CC(C)Cc1ccc(S(=O)(=O)N2CCC[C@@H]2C(=O)NCCc2csc(-c3ccccc3)n2)cc1`, the AC50 was 12400 nM. For the molecule `O=C(Cc1ccccn1)N1CC(=O)N2[C@H](CO)[C@@H](c3ccc(C#CCC4CCCC4)cc3)[C@H]2C1`, the AC50 was 15800 nM. For the molecule `O=C(CCC1N=C2c3ccccc3N=C(SCc3cc(=O)n4cc(Cl)ccc4n3)N2C1=O)NCc1cccs1` (configuration not stated), the AC50 was 32000 nM. As for `COc1cccc(CNC2=NCCNC23CCN(S(=O)(=O)c2ccc4c(c2)CCCC4)CC3)c1`, the figure is 16300 nM. Regarding `O=C(CC1N=C2c3ccccc3N=C(SCc3ccccc3F)N2C1=O)NC1CCCCC1` (configuration not stated), the AC50 is 19100 nM. As for `COc1cccc(-c2ccc(C3[C@@H]4CN(Cc5ccccn5)C[C@H]3N4)cc2)c1` (some centres not stated), the AC50 is 15600 nM.

Turning to `COc1ccc2c(c1)NC1(CCN(C(=O)Cc3ccc(OC)c(OC)c3)CC1)c1cccn1-2`, the AC50 is > 39000 nM (inactive). Consider `O=C(NCc1cncc2c1CCN(Cc1cccc(F)c1)C2)C1CC1`, for which the AC50 was 8450 nM. `O=C(NCCc1csc(-c2ccccc2)n1)[C@H]1CCCN1S(=O)(=O)c1ccc(Cl)s1`: the AC50 is 12900 nM. For `CCOc1ccccc1N(Cc1nc(-c2ccc(OC)cc2)oc1C)S(=O)(=O)c1ccccc1`, the AC50 was 6350 nM. Turning to `COc1ccc(-c2nc(NCCN3CCN(C)CC3)c3ccccc3n2)cc1`, the AC50 was 3520 nM and 27400 nM. Take `O=S(=O)(c1ccc2c(c1)CCCC2)N1CCC2(CC1)NCCN=C2NCc1cccc(F)c1`: the AC50 was 5260 nM. For `CN(C[C@H]1N[C@@H](CO)[C@H]1c1ccc(-c2ccc(F)cc2)cc1)C(=O)C1CCC1`, the AC50 was 16200 nM. For the molecule `O=C(NCCc1csc(-c2ccccc2)n1)C1CCN(C(=O)c2ccco2)CC1`, the AC50 was > 39000 nM (inactive). In the case of `Cc1csc(-c2cc(S(=O)(=O)NCCCN3CCC(C)CC3)c(C)s2)n1`, the AC50 was > 39000 nM (inactive). In the case of `CS(=O)(=O)N1CCc2sc(C(=O)Nc3ccc(Cl)cc3)cc21`, the AC50 is 3360 nM. `COc1ccc(-c2nc(NCCCN3CCCC3)c3ccccc3n2)cc1`: the AC50 was 14200 nM. As for `O=C(Cc1cccnc1)N1CC(=O)N2[C@H](CO)[C@@H](c3ccc(C#CC4CCCCC4)cc3)[C@@H]2C1`, the figure is 8960 nM and 14800 nM; as for `CCc1ccc(S(=O)(=O)N2CCC3(CC2)NCCN=C3NCc2ccc(Cl)cc2)cc1`, 7780 nM. For the molecule `COc1ccc(-c2nc(NCC3CCN(Cc4ccc(C)cc4)CC3)c3ccccc3n2)cc1`, the AC50 was 8660 nM. Regarding `O=C1CCc2cc(S(=O)(=O)NCCc3ccccc3)cc3c2N1CCC3`, the half-maximal activity concentration (AC50) was 14000 nM. Regarding `COc1ccc(CNC(=O)COc2nc(C)nc3ccccc23)cc1`, the AC50 is > 39000 nM (inactive).

Regarding `O=C(c1ccc(F)cc1)N1CC(=O)N2[C@H](CO)[C@@H](c3ccc(C#CCC4CCCC4)cc3)[C@@H]2C1`, the AC50 is 17600 nM and 4580 nM. For `CN(c1ccc(F)cc1)c1nc(-c2ccc(Cl)cc2)nc2ccccc12`, the AC50 was 13900 nM. With `N#C[C@@H]1N[C@H](CO)[C@H]1c1ccc(-c2cccc(F)c2)cc1`, the AC50 is 26300 nM. `C/C=C/c1ccc([C@H]2[C@H](CO)N3CCCCN(S(=O)(=O)c4ccc(OC)cc4)C[C@@H]23)cc1`: the AC50 was > 39000 nM (inactive).

As to `Cc1cc(C(=O)Nc2ccc3c(c2)C(=O)N(C)[C@H]2CC[C@@H](CC(=O)NCc4ccc(-c5ccccc5)cc4)O[C@@H]2CO3)no1`, the AC50 was 20800 nM. On to `O=C(NCCc1csc(-c2ccccc2)n1)C1CCN(S(=O)(=O)c2cccc(Cl)c2)CC1`, for which the AC50 was > 39000 nM (inactive). Consider `COCCCNc1ncnc2c1cnn2-c1cccc(C)c1`, for which the AC50 is 14600 nM. Take `Cc1ccc(S(=O)(=O)N2CCC3(CC2)NCCN=C3NCc2ccc(F)c(Cl)c2)c(C)c1`: the AC50 was 6210 nM. With `O=C(COc1ccc(F)cc1)N1CCC2(CC1)Nc1ccc(Cl)cc1-n1cccc12`, the AC50 is 17000 nM.

For `COc1ccccc1N1CCN(C(=O)CC2Nc3c4ccccc4nc(=S)n3C2=O)CC1` (configuration not stated), the AC50 was 20300 nM. As for `C[C@@H]1CN(Cc2ccc(F)cc2)CCN1C(=O)COc1ccc(Cl)cc1NC(N)=O`, the figure is > 39000 nM (inactive); as for `COc1ccccc1N(Cc1nc(-c2cccc(C)c2)oc1C)S(=O)(=O)c1ccccc1`, 13300 nM. As for `O=C(CCC1N=C2c3ccccc3N=C(SCc3cccc(Cl)c3)N2C1=O)NCc1cccs1` (configuration not stated), the figure is 5480 nM; as for `O=C1CCc2cc(S(=O)(=O)NCc3ccco3)cc3c2N1CCC3`, > 39000 nM (inactive); as for `CCc1ccc(S(=O)(=O)N2CCC3(CC2)NCCN=C3NCc2ccc(F)cc2)cc1`, 6640 nM. With `O=C(CCC1N=C2c3ccccc3N=C(SCc3ccc(Cl)cc3)N2C1=O)NCc1cccs1` (configuration not stated), the AC50 is 14900 nM.

Turning to `Cc1ccccc1S(=O)(=O)N1CC[C@H]2[C@H](CO)Nc3ccc(-c4ccc(F)cc4)cc3[C@H]21`, the AC50 is 28500 nM. As for `CCN(CC)c1nc(-c2ccc(OC)cc2)nc2ccccc12`, the AC50 was 15700 nM. With `O=C(Cc1cccnc1)N1CC(=O)N2[C@H](CO)[C@@H](c3ccc(C4=CCCCC4)cc3)[C@H]2C1`, the AC50 is 25300 nM. As for `CCc1nc(OCC(=O)Nc2cccc(Br)c2)c2ccccc2n1`, the figure is > 39000 nM (inactive); as for `CCOc1ccc(-c2nc(CN3CCN(C(=O)Nc4ccc(F)cc4)CC3)c(C)o2)cc1`, 12800 nM; as for `O=C(Nc1cccc(F)c1)N1CCCCN2[C@H](CO)[C@@H](c3ccc(C#Cc4cccnc4)cc3)[C@@H]2C1`, 16000 nM.

For `COCCN(C)C(=O)c1cc(-c2ccn(-c3ccc(OC)cc3)n2)n2ccccc12`, the AC50 is 22300 nM. As for `O=C(Nc1ccccc1)N1CC2CN(Cc3ccc(C(F)(F)F)cc3)C2C1` (configuration not stated), the figure is 36600 nM; as for `NCCCC[C@@H]1NC(=O)[C@@H](Cc2c[nH]c3ccccc23)NC(=O)[C@H](c2ccccc2)NC(=O)[C@@H]2C[C@@H](OC(=O)NCCN)CN2C(=O)[C@H](Cc2ccccc2)NC(=O)[C@H](Cc2ccc(OCc3ccccc3)cc2)NC1=O` (cyclo([Hyp]([CO-Ethylenediamine])[Phg][dW]KY(Bn)F)), 15900 nM; as for `COc1ccc(-c2nc(NCCN3CCCCC3C)c3ccccc3n2)cc1` (configuration not stated), 13400 nM.
